Results: patent US3956292A, “7-(α-FUROYLUREIDOARYL AND CYCLOHEXADIENYLACETAMIDO) CEPHALOSPORIN ANTIBIOTICS” (Eli Lilly and Company, priority 1975, dated 1976)
≈ marks a conversion by molar mass, not a printed value. Where two headings read alike, the source gives them in different places.

Columns and labels:
Type in all cases: cell-based
[1] = tested on: Salmonella heidelberg; assay: Antibiotic activity in vitro, MIC by gradient plate method; conditions: Salmonella enterica
Procedure: (§1) The antibiotic activity of the compounds of the invention is illustrated by the in vitro data presented in the following Tables I and II for two of the preferred compounds. In the tables, the minimum inhibitory concentrations (MIC) of the test compounds versus the indicated gram-positive and gram-negative microorganisms is presented. The MIC values were determined by the gradient plate method which is essentially the method described by Bryson and Szybalski, Science, 116, 45-46 (1952).
(§2) Table II lists the inhibitory activity in terms of MIC values against clinical isolates of penicillin resistant Staphylococcus microorganisms both in the presence of and in the absence of serum.

[2] = tested on: Klebsiella pneumoniae; assay: as above
Procedure: as §1, §2

[3] = tested on: Pseudomonas aeruginosa; assay: as above
Procedure: as §1, §2

[4] = tested on: Serratia marcescens; assay: as above
Procedure: as §1, §2

[5] = tested on: Shigella sp.; assay: as above
Procedure: as §1, §2

[6] = tested on: Escherichia coli; assay: as above
Procedure: as §1, §2

[7] = tested on: Aerobacter aerogenes; assay: as above; conditions: Klebsiella aerogenes
Procedure: as §1, §2

[8] = tested on: Resistant Staphylococcus X-400; assay: Antibiotic activity vs. penicillin resistant Staphylococcus clinical isolates, MIC by gradient plate method
Procedure: as §1, §2

[9] = tested on: Resistant Staphylococcus V-84; assay: as above
Procedure: as §1, §2

[10] = tested on: Resistant Staphylococcus V-32; assay: as above
Procedure: as §1, §2

[11] = tested on: Resistant Staphylococcus X1.1; assay: as above
Procedure: as §1, §2

[12] = tested on: Resistant Staphylococcus V-41; assay: as above
Procedure: as §1, §2

[13] = Staphylococcus, absence of serum (NS), read-out: MIC

SMILES	MIC [1]	MIC [2]	MIC [3]	MIC [4]	MIC [5]	MIC [6]	MIC [7]	MIC [8, 13]	MIC ([8]; presence of serum (S))	MIC ([9]; absence of serum (NS))	MIC ([9]; presence of serum (S))	MIC ([10]; absence of serum (NS))	MIC ([10]; presence of serum (S))	MIC ([11]; absence of serum (NS))	MIC ([11]; presence of serum (S))	MIC ([12]; absence of serum (NS))	MIC ([12]; presence of serum (S))
Cn1nnnc1SCC1=C(C(=O)O)N2C(=O)C(NC(=O)C(NC(=O)NC(=O)c3ccco3)c3ccccc3)C2SC1 (stereo not drawn) [Test Compound A, 7-[α-(3-α-furoyl-1-ureido)-α-phenylacetamido]-3-(1-methyl-1H-tetrazole-5-ylthiomethyl)-3-cephem-4-carboxylic acid]	6.8 µg/mL (≈ 11.4 µM)	5 µg/mL (≈ 8.35 µM)	12.3 µg/mL (≈ 20.5 µM)	19.5 µg/mL (≈ 32.6 µM)	5.5 µg/mL (≈ 9.19 µM)	7 µg/mL (≈ 11.7 µM)	7.5 µg/mL (≈ 12.5 µM)	> 20 µg/mL	> 20 µg/mL	0.4 µg/mL (≈ 0.668 µM)	1 µg/mL	4.5 µg/mL (≈ 7.52 µM)	8 µg/mL	0.4 µg/mL (≈ 0.668 µM)	1 µg/mL	3 µg/mL (≈ 5.01 µM)	8 µg/mL
Cn1nnnc1SCC1=C(C(=O)O)N2C(=O)C(NC(=O)C(NC(=O)NC(=O)c3ccco3)c3ccc(O)cc3)C2SC1 (stereo not drawn) [Test Compound B, 7-[α-(3-α-furoyl-1-ureido)-α-(4-hydroxyphenyl)acetamido]-3-(1-methyl-1H-tetrazole-5-ylthiomethyl)-3-cephem-4-carboxylic acid]	5.8 µg/mL (≈ 9.44 µM)	6.3 µg/mL (≈ 10.3 µM)	10.7 µg/mL (≈ 17.4 µM)	14.5 µg/mL (≈ 23.6 µM)	5.5 µg/mL (≈ 8.95 µM)	5.8 µg/mL (≈ 9.44 µM)	6.5 µg/mL (≈ 10.6 µM)	> 20 µg/mL	> 20 µg/mL	1 µg/mL (≈ 1.63 µM)	1 µg/mL	13.7 µg/mL (≈ 22.3 µM)	> 20 µg/mL	1 µg/mL (≈ 1.63 µM)	1 µg/mL	5 µg/mL (≈ 8.14 µM)	> 20 µg/mL
